Converted amounts (≈) assume the structure as drawn.
Experiments:
[1] = tested on: Aspergillus niger; test: Antifungal activity against Aspergillus niger ATCC 6275 assessed as inhibition of […] growth incubated for 7 days by broth macrodilution method; assay type: functional; conditions: ATCC 6275, 168 h, time 7 day
[2] = tested on: Escherichia coli; test: Antibacterial activity against Escherichia coli ATCC 25922 assessed as diameter of inhibition zone incubated for 24 hrs by disc diffusion assay; assay type: functional
[3] = tested on: Aspergillus niger; test: Antifungal activity against Aspergillus niger ATCC 6275 assessed as diameter of inhibition zone incubated for 7 days by disc diffusion assay; assay type: functional; conditions: time 7 day
[4] = tested on: HepG2; test: Anticancer activity against human HepG2 cells assessed as reduction in cell viability; assay type: functional, cell-based
[5] = tested on: HCT-116; test: cells; conditions: Homo sapiens
[6] = tested on: MCF7; test: Anticancer activity against human MCF7 cells assessed as reduction in cell viability; assay type: functional, cell-based
[7] = tested on: Pseudomonas aeruginosa; test: Antibacterial activity against Pseudomonas aeruginosa ATCC 27853 assessed as diameter of inhibition zone incubated for 24 hrs by disc diffusion assay; assay type: functional
[8] = tested on: Pseudomonas aeruginosa; test: Antibacterial activity against Pseudomonas aeruginosa ATCC 27853 assessed as inhibition of bacterial growth incubated for 24 hrs by broth macrodilution method; assay type: functional
[9] = tested on: Escherichia coli; test: Antibacterial activity against Escherichia coli ATCC 25922 assessed as inhibition of bacterial growth incubated for 24 hrs by broth macrodilution method; assay type: functional
[10] = tested on: Human immunodeficiency virus 2; test: Antiviral activity against HIV2 ROD infected in human MT4 cells assessed as reduction in virus-induced cytopathic effect by MTT assay; assay type: functional, organism-based; conditions: Human immunodeficiency virus 2, ROD
[11] = tested on: Human immunodeficiency virus 1; test: Antiviral activity against HIV1 IIIB infected in human MT4 cells assessed as reduction in virus-induced cytopathic effect by MTT assay; assay type: functional, organism-based; conditions: Human immunodeficiency virus 1, IIIB
[12] = Selectivity index, ratio of CC50 for cytotoxicity against human MT4 cells to EC50 for antiviral activity against HIV2 ROD infected in human MT4 cells; assay type: toxicity, cell-based; conditions: read-out: Selectivity Index
[13] = Selectivity index, ratio of CC50 for cytotoxicity against human MT4 cells to EC50 for antiviral activity against HIV1 IIIB infected in human MT4 cells; assay type: toxicity, cell-based; conditions: read-out: Selectivity Index
[14] = Cytotoxicity against human MT4 cells assessed as reduction in cell viability by MTT assay; assay type: toxicity, cell-based
[15] = Inhibition of Escherichia coli topoisomerase 4 assessed as reduction in decatenation
[16] = tested on: Aspergillus fumigatus; test: microbe, parasite or virus in culture; assay type: functional; conditions: ATCC204305, dose 50 mg/ml, time 24 hrs, read-out: DIZ
[17] = tested on: Streptococcus pneumoniae; test: Antibacterial activity against Streptococcus pneumoniae ATCC BAA-255/R6 assessed as diameter of inhibition zone at 50 mg/ml incubated for 24 hrs by paper disk diffusion method; assay type: functional; conditions: read-out: DIZ
[18] = tested on: Streptococcus pneumoniae; test: Antibacterial activity against Streptococcus pneumoniae ATCC BAA-255/R6 assessed as inhibition of bacterial growth incubated for 24 hrs by disk diffusion method; assay type: functional
[19] = tested on: Staphylococcus aureus; test: Antibacterial activity against Staphylococcus aureus ATCC6538-P assessed as diameter of inhibition zone at 50 mg/ml incubated for 24 hrs by paper disk diffusion method; assay type: functional; conditions: read-out: DIZ
[20] = tested on: Escherichia coli; test: Antibacterial activity against Escherichia coli MTCC 739 assessed as bacterial growth inhibition; assay type: functional
[21] = tested on: Bacillus subtilis; test: Antibacterial activity against Bacillus subtilis MTCC 121 assessed as bacterial growth inhibition; assay type: functional
[22] = tested on: Bacillus subtilis; test: Antibacterial activity against Bacillus subtilis MTCC 121 assessed as minimum bactericidal concentration; assay type: functional
[23] = tested on: Raoultella planticola; test: Antibacterial activity against Raoultella planticola MTCC 530 assessed as bacterial growth inhibition; assay type: functional; conditions: Klebsiella planticola
[24] = tested on: Staphylococcus aureus; test: Antibacterial activity against Staphylococcus aureus MLS-16 MTCC 2940 assessed as bacterial growth inhibition; assay type: functional
[25] = tested on: Pseudomonas aeruginosa; test: Antibacterial activity against Pseudomonas aeruginosa MTCC 2453 assessed as bacterial growth inhibition; assay type: functional
[26] = tested on: Staphylococcus aureus; test: Antibacterial activity against Staphylococcus aureus MTCC 96 assessed as minimum bactericidal concentration; assay type: functional
[27] = tested on: Micrococcus luteus; test: Antibacterial activity against Micrococcus luteus MTCC 2470 assessed as bacterial growth inhibition; assay type: functional
[28] = tested on: Staphylococcus aureus; test: Antibacterial activity against Staphylococcus aureus MLS-16 MTCC 2940 assessed as minimum bactericidal concentration; assay type: functional
[29] = tested on: Mycobacterium tuberculosis; test: Antitubercular activity against Mycobacterium tuberculosis H37Rv assessed as bacterial growth inhibition at 250 ug/ml; assay type: functional
[30] = tested on: Aspergillus fumigatus; test: Antifungal activity against Aspergillus fumigatus MTCC 227 assessed as fungal growth inhibition by broth microdilution method; assay type: functional
[31] = tested on: Clostridium tetani; test: Antibacterial activity against Clostridium tetani MTCC 449 assessed as bacterial growth inhibition by broth microdilution method; assay type: functional
[32] = tested on: Salmonella typhimurium; test: Antibacterial activity against Salmonella typhimurium MTCC 98 assessed as bacterial growth inhibition by broth microdilution method; assay type: functional, Salmonella enterica subsp. enterica serovar Typhimurium; conditions: Salmonella enterica
[33] = tested on: Escherichia coli; test: Antibacterial activity against Escherichia coli MTCC 443 assessed as bacterial growth inhibition by broth microdilution method; assay type: functional
[34] = tested on: Mycobacterium tuberculosis; test: Antitubercular activity against Mycobacterium tuberculosis H37Rv assessed as bacterial growth inhibition at 100 ug/ml; assay type: functional
[35] = tested on: Bacillus subtilis; test: Antibacterial activity against Bacillus subtilis ATCC 6633 assessed as diameter of inhibition zone incubated for 24 hrs by disc diffusion assay; assay type: functional
[36] = tested on: Bacillus subtilis; test: Antibacterial activity against Bacillus subtilis ATCC 6633 assessed as inhibition of bacterial growth incubated for 24 hrs by broth macrodilution method; assay type: functional
[37] = tested on: Staphylococcus aureus; test: Antibacterial activity against Staphylococcus aureus ATCC 25923 assessed as inhibition of bacterial growth incubated for 24 hrs by broth macrodilution method; assay type: functional
[38] = tested on: Staphylococcus aureus; test: Antibacterial activity against Staphylococcus aureus ATCC 25923 assessed as diameter of inhibition zone incubated for 24 hrs by disc diffusion assay; assay type: functional
[39] = tested on: Penicillium italicum; test: microbe, parasite or virus in culture; assay type: functional; conditions: CECT 2294, dose 50 mg/ml, time 24 hrs, read-out: DIZ

Compound: COc1ccc(C2c3c([nH]c(=O)[nH]c3=O)Oc3ncn(-c4cc(C)ccn4)c(=N)c32)cc1 (stereo not drawn)
- MIC [1]: 15.4 µg/mL (≈ 35.7 µM)
- diameter of the inhibition zone (DIZ) [2]: 18.1 mm
- diameter of the inhibition zone (DIZ) [3]: 17.2 mm
- IC50 [4]: 2.09 µM
- IC50 [5]: 2.61 µM
- IC50 [6]: 2.43 µM
- diameter of the inhibition zone (DIZ) [7]: 17.3 mm
- MIC [8]: 3.12 µg/mL (≈ 7.26 µM)
- MIC [9]: 0.781 µg/mL (≈ 1.81 µM)

Compound: N=c1c2c(ncn1N)Oc1c(c(=O)oc3ccccc13)C2c1cccc2ccccc12 (stereo not drawn)
- EC50 [10]: 4.84 µg/mL (≈ 11.9 µM)
- EC50 [11]: 4.84 µg/mL (≈ 11.9 µM)
- selectivity ratio [12]: < 1
- selectivity ratio [13]: < 1
- CC50 [14]: 4.84 µg/mL (≈ 11.9 µM)

Compound: Nc1nc(=O)[nH]c2c1C(c1ccc(Cl)cc1)C=C(c1cc3ccccc3oc1=O)O2 (stereo not drawn)
- IC50 [15]: 0.237 µM
- zone of inhibition at 50000 µg/mL [16]: 10 mm
- zone of inhibition at 50000 µg/mL [17]: 10 mm
- MIC [18]: 7.8 µg/mL (≈ 18.6 µM)
- zone of inhibition at 50000 µg/mL [19]: 18 mm

Compound: Cc1ccc(C2c3c(Nc4ccc([N+](=O)[O-])cc4)ncnc3Oc3c2c(=O)oc2ccccc32)cc1 (stereo not drawn)
- MIC [20]: 15.6 µg/mL (≈ 32.6 µM)
- MIC [21]: 15.6 µg/mL (≈ 32.6 µM)
- MBC [22]: 15.6 µg/mL (≈ 32.6 µM)
- MIC [23]: 15.6 µg/mL (≈ 32.6 µM)
- MIC [24]: 15.6 µg/mL (≈ 32.6 µM)
- MIC [25]: 15.6 µg/mL (≈ 32.6 µM)
- MBC [26]: 15.6 µg/mL (≈ 32.6 µM)
- MIC [27]: 15.6 µg/mL (≈ 32.6 µM)
- MBC [28]: 15.6 µg/mL (≈ 32.6 µM)

Compound: CCOC(=O)C1=C(N)Oc2c(c(=O)n(C)c(=O)n2C)C1c1c(C)nn(-c2ccccc2)c1-n1ccnc1 (stereo not drawn)
- inhibition at 250 µg/mL [29]: 84%
- MIC [30]: 200 µg/mL (≈ 397 µM)
- MIC [31]: 100 µg/mL (≈ 199 µM)
- MIC [32]: 100 µg/mL (≈ 199 µM)
- MIC [33]: 62.5 µg/mL (≈ 124 µM)
- inhibition at 100 µg/mL [34]: 30%

Compound: COc1ccc(C2c3c([nH]c(=O)[nH]c3=O)Oc3ncn(C(N)=O)c(=N)c32)cc1 (stereo not drawn)
- IC50 [4]: 2.09 µM
- diameter of the inhibition zone (DIZ) [35]: 26 mm
- IC50 [5]: 2.61 µM
- IC50 [6]: 2.43 µM
- MIC [36]: 0.097 µg/mL (≈ 0.254 µM)
- MIC [37]: 0.781 µg/mL (≈ 2.04 µM)
- diameter of the inhibition zone (DIZ) [38]: 21.7 mm

Compound: Clc1ccc(COC(Cn2ccnc2)c2ccc(Cl)cc2Cl)c(Cl)c1 (stereo not drawn) [MICONAZOLE NITRATE]
- zone of inhibition at 50000 µg/mL [16]: 19 mm
- zone of inhibition at 50000 µg/mL [39]: 17 mm

Compound: Cc1nc2c(c(=O)[nH]1)C(c1cccc3ccccc13)c1c(c3ccccc3oc1=O)O2 (stereo not drawn)
- EC50 [10]: 3.63 µg/mL (≈ 8.89 µM)
- EC50 [11]: 3.63 µg/mL (≈ 8.89 µM)
- selectivity ratio [12]: < 1
- selectivity ratio [13]: < 1
- CC50 [14]: 3.63 µg/mL (≈ 8.89 µM)

From ChEMBL document CHEMBL5241112, “Insights into the recent progress in the medicinal chemistry of pyranopyrimidine analogs” (RSC Med Chem, 2022)
